Assay results reported in patent US7550455B2, “8-(piperazin-1yl)- and 8-([1,4]diazepan-1yl)-xanthines, the preparation thereof and their use as pharmaceutical composition” (Boehringer Ingelheim International GmbH, priority 2003, dated 2009).

Columns and labels:
DPP-IV = molecular target: T1, DPP-IV (Homo sapiens, UniProt P27487); assay: DPP-IV assay with Caco-2 cell extract as DPP-IV source; format: biochemical; details: extract of human colon carcinoma cell line Caco-2, AFC substrate 100 μM, 60 minutes, room temperature; read-out: DPP IV inhibition IC50
T1 construct: The cell extract was obtained from the cells solubilized in a buffer; endogenous in cells; host or cells: Caco-2 (human colon carcinoma), differentiated to induce DPP-IV expression; Nonidet-P40 solubilized extract
Method: The ability of the substances and their corresponding salts to inhibit DPP-IV activity can be shown in a test set-up in which an extract of the human colon carcinoma cell line Caco-2 is utilized as the DPP-IV source. […] The cell extract was obtained from the cells solubilized in a buffer (10 mM tris HCl, 0.15 M NaCl, 0.04 t.i.u. aprotinin, 0.5% Nonidet-P40, pH 8.0) by centrifugation at 35000 g for 30 minutes at 4° C. (for the removal of cell debris).
The DPP-IV assay was carried out as follows:
50 μl of substrate solution (AFC; AFC is amido-4-trifluoromethylcoumarin), final concentration 100 μM, were introduced into black microtitre plates. 20 μl of assay buffer (final concentrations 50 mM tris HCl pH 7.8, 50 mM NaCl, 1% DMSO) were pipetted in. The reaction was started by addition of 30 μl of solubilized Caco-2 protein (final concentration 0.14 μg of protein per well). […] The reaction was carried out at room temperature; the incubation period was 60 minutes. […] Blank values (corresponding to 0% activity) were obtained in batches without Caco-2 protein (volumes replaced by assay buffer), control values (corresponding to 100% activity) were obtained in batches without addition of substance. […]

rats = assay: Tolerability after oral administration to rats (behaviour); format: in vivo; details: oral administration of 10 mg/kg

T1 sequence (P27487 whole entry): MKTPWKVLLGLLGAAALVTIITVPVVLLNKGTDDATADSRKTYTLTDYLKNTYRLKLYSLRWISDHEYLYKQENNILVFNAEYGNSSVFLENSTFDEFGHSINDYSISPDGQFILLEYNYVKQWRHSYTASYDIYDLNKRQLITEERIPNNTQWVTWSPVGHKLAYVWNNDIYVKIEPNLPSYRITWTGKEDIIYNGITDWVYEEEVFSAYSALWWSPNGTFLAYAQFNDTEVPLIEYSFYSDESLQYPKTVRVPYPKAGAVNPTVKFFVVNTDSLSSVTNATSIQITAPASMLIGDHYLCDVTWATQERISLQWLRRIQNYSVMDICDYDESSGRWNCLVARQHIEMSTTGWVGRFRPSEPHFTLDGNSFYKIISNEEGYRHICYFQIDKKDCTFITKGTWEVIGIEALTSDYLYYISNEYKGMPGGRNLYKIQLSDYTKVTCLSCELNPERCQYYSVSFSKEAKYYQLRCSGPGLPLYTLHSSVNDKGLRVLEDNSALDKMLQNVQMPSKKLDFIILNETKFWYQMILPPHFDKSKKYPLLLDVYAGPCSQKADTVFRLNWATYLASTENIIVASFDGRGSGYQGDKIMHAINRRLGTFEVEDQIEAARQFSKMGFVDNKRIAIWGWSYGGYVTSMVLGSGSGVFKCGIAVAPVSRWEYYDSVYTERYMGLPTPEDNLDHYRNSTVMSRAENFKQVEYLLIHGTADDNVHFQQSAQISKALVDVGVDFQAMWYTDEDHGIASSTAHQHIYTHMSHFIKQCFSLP

melting point	IC50 (DPP-IV)	SMILES	changes in the behaviour of the animals (rats)
223 to 225 °C		CC#CCn1c(N2CCCNCC2)nc2c1c(=O)n(Cc1nc3ccccc3c3ccccc13)c(=O)n2C [Example 1(5), 1-[(Phenanthridin-6-yl)methyl]-3-methyl-7-(2-butyn-1-yl)-8-([1,4]diazepan-1-yl)-xanthine]	
	9 nM	CC#CCn1c(N2CCCNCC2)nc2c1c(=O)n(Cc1nc(C)cc3ccccc13)c(=O)n2C [1(2), 1-[(3-Methylisoquinolin-1-yl)methyl]-3-methyl-7-(2-butyn-1-yl)-8-([1,4]diazepan-1-yl)xanthine]	
		CC#CCn1c(N2CCNCC2)nc2c1c(=O)n(Cc1nc(C)c3ccccc3n1)c(=O)n2C [Example 1, 1-[(4-Methylquinazolin-2-yl)methyl]-3-methyl-7-(2-butyn-1-yl)-8-(piperazin-1-yl)-xanthine]	not possible to observe any changes in the behaviour of the animals
	17 nM	CC#CCn1c(N2CCNCC2)nc2c1c(=O)n(Cc1nc(C)cc3ccccc13)c(=O)n2C [1(1), 1-[(3-Methylisoquinolin-1-yl)methyl]-3-methyl-7-(2-butyn-1-yl)-8-(piperazin-1-yl)-xanthine]	
188 to 190 °C	6 nM	CC#CCn1c(N2CCCNCC2)nc2c1c(=O)n(Cc1nc(C)c3ccccc3n1)c(=O)n2C [1(3), 1-[(4-Methylquinazolin-2-yl)methyl]-3-methyl-7-(2-butyn-1-yl)-8-([1,4]diazepan-1-yl)xanthine]	
